Reference: ChEMBL document CHEMBL3046208, “Natural and synthetic podolactones with potential use as natural herbicide models” (2000)
Calls of active or inactive are those of the source. The rule behind the calls is not given here.

Columns and labels:
[1] = tested on: Hordeum vulgare; test: Stimulation of root length of Hordeum vulgare (barley) at 0.1 mM after 5 days relative to untreated control; type: functional
[2] = tested on: Triticum aestivum; test: Stimulation of shoot length of Triticum aestivum (wheat) at 0.1 mM after 5 days relative to untreated control; type: functional
[3] = tested on: Hordeum vulgare; test: Stimulation of germination of Hordeum vulgare (barley) at 0.1 mM after 5 days relative to untreated control; type: functional
[4] = tested on: Triticum aestivum; test: Stimulation of root length of Triticum aestivum (wheat) at 0.1 mM after 5 days relative to untreated control; type: functional
[5] = tested on: Triticum aestivum; test: Stimulation of germination of Triticum aestivum (wheat) at 0.1 mM after 5 days relative to untreated control; type: functional
[6] = tested on: Allium cepa; test: Stimulation of root length of Allium cepa (onion) at 0.1 mM after 5 days relative to untreated control; type: functional
[7] = tested on: Allium cepa; test: Stimulation of shoot length of Allium cepa (onion) at 0.1 mM after 5 days relative to untreated control; type: functional
[8] = tested on: Allium cepa; test: Stimulation of germination of Allium cepa (onion) at 0.1 mM after 5 days relative to untreated control; type: functional
[9] = tested on: Solanum lycopersicum; test: Stimulation of shoot length of Solanum lycopersicum (tomato) at 0.1 mM after 5 days relative to untreated control; type: functional
[10] = tested on: Solanum lycopersicum; test: Stimulation of root length of Solanum lycopersicum (tomato) at 0.1 mM after 5 days relative to untreated control; type: functional
[11] = tested on: Solanum lycopersicum; test: Stimulation of germination of Solanum lycopersicum (tomato) at 0.1 mM after 5 days relative to untreated control; type: functional
[12] = tested on: Lepidium sativum; test: Stimulation of shoot length of Lepidium sativum at 0.1 mM after 5 days relative to untreated control; type: functional
[13] = tested on: Lepidium sativum; test: Stimulation of root length of Lepidium sativum at 0.1 mM after 5 days relative to untreated control; type: functional
[14] = tested on: Lactuca sativa; test: Stimulation of shoot length of Lactuca sativa cv. Roman (lettuce) at 0.1 mM after 5 days relative to untreated control; type: functional
[15] = tested on: Lepidium sativum; test: Stimulation of germination of Lepidium sativum at 0.1 mM after 5 days relative to untreated control; type: functional
[16] = tested on: Lactuca sativa; test: Stimulation of root length of Lactuca sativa cv. Roman (lettuce) at 0.1 mM after 5 days relative to untreated control; type: functional
[17] = tested on: Lactuca sativa; test: Stimulation of germination of Lactuca sativa cv. Roman (lettuce) at 0.1 mM after 5 days relative to untreated control; type: functional
[18] = tested on: Lactuca sativa; test: Stimulation of shoot length of Lactuca sativa cv. Nigra (lettuce) at 0.1 mM after 5 days relative to untreated control; type: functional
[19] = tested on: Lactuca sativa; test: Stimulation of root length of Lactuca sativa cv. Nigra (lettuce) at 0.1 mM after 5 days relative to untreated control; type: functional
[20] = tested on: Lactuca sativa; test: Stimulation of germination of Lactuca sativa cv. Nigra (lettuce) at 0.1 mM after 5 days relative to untreated control; type: functional
[21] = tested on: Triticum aestivum; test: Inhibition of shoot length of Triticum aestivum (wheat) at 0.1 mM after 5 days relative to untreated control; type: functional; details: 120 h
[22] = tested on: Hordeum vulgare; test: Inhibition of germination of Hordeum vulgare (barley) at 0.1 mM after 5 days relative to untreated control; type: functional; details: 120 h
[23] = tested on: Hordeum vulgare; test: Inhibition of root length of Hordeum vulgare (barley) at 0.1 mM after 5 days relative to untreated control; type: functional; details: 120 h
[24] = tested on: Hordeum vulgare; test: Stimulation of shoot length of Hordeum vulgare (barley) at 0.1 mM after 5 days relative to untreated control; type: functional
[25] = tested on: Lactuca sativa; test: Inhibition of germination of Lactuca sativa cv. Nigra (lettuce) at 0.1 mM after 5 days relative to untreated control; type: functional; details: 120 h
[26] = tested on: Lactuca sativa; test: Inhibition of root length of Lactuca sativa cv. Nigra (lettuce) at 0.1 mM after 5 days relative to untreated control; type: functional; details: 120 h
[27] = tested on: Lactuca sativa; test: Inhibition of shoot length of Lactuca sativa cv. Nigra (lettuce) at 0.1 mM after 5 days relative to untreated control; type: functional; details: 120 h
[28] = tested on: Hordeum vulgare; test: Inhibition of shoot length of Hordeum vulgare (barley) at 10 uM after 5 days relative to untreated control; type: functional, organism-based
[29] = tested on: Triticum aestivum; test: Inhibition of shoot length of Triticum aestivum (wheat) at 10 uM after 5 days relative to untreated control; type: functional, organism-based
[30] = tested on: Hordeum vulgare; test: Inhibition of root length of Hordeum vulgare (barley) at 10 uM after 5 days relative to untreated control; type: functional, organism-based
[31] = tested on: Allium cepa; test: Inhibition of shoot length of Allium cepa (onion) at 10 uM after 5 days relative to untreated control; type: functional; details: 120 h
[32] = tested on: Triticum aestivum; test: Inhibition of root length of Triticum aestivum (wheat) at 10 uM after 5 days relative to untreated control; type: functional; details: 120 h
[33] = tested on: Allium cepa; test: Inhibition of root length of Allium cepa (onion) at 10 uM after 5 days relative to untreated control; type: functional; details: 120 h
[34] = tested on: Solanum lycopersicum; test: Inhibition of shoot length of Solanum lycopersicum (tomato) at 1 uM after 5 days relative to untreated control; type: functional; details: 120 h
[35] = tested on: Lepidium sativum; test: Stimulation of shoot length of Lepidium sativum at 1 uM after 5 days relative to untreated control; type: functional
[36] = tested on: Solanum lycopersicum; test: Inhibition of root length of Solanum lycopersicum (tomato) at 1 uM after 5 days relative to untreated control; type: functional; details: 120 h
[37] = tested on: Lepidium sativum; test: Stimulation of root length of Lepidium sativum at 1 uM after 5 days relative to untreated control; type: functional
[38] = tested on: Solanum lycopersicum; test: Inhibition of shoot length of Solanum lycopersicum (tomato) at 10 uM after 5 days relative to untreated control; type: functional, organism-based
[39] = tested on: Lactuca sativa; test: Inhibition of germination of Lactuca sativa cv. Roman (lettuce) at 0.1 mM after 5 days relative to untreated control; type: functional; details: 120 h
[40] = tested on: Lactuca sativa; test: Inhibition of root length of Lactuca sativa cv. Roman (lettuce) at 0.1 mM after 5 days relative to untreated control; type: functional; details: 120 h
[41] = tested on: Lactuca sativa; test: Inhibition of shoot length of Lactuca sativa cv. Roman (lettuce) at 0.1 mM after 5 days relative to untreated control; type: functional; details: 120 h
[42] = tested on: Lepidium sativum; test: Inhibition of germination of Lepidium sativum at 0.1 mM after 5 days relative to untreated control; type: functional; details: 120 h
[43] = tested on: Lepidium sativum; test: Inhibition of root length of Lepidium sativum at 0.1 mM after 5 days relative to untreated control; type: functional; details: 120 h
[44] = tested on: Lepidium sativum; test: Inhibition of shoot length of Lepidium sativum at 0.1 mM after 5 days relative to untreated control; type: functional; details: 120 h
[45] = tested on: Solanum lycopersicum; test: Inhibition of germination of Solanum lycopersicum (tomato) at 0.1 mM after 5 days relative to untreated control; type: functional; details: 120 h
[46] = tested on: Solanum lycopersicum; test: Inhibition of root length of Solanum lycopersicum (tomato) at 0.1 mM after 5 days relative to untreated control; type: functional; details: 120 h
[47] = tested on: Solanum lycopersicum; test: Inhibition of shoot length of Solanum lycopersicum (tomato) at 0.1 mM after 5 days relative to untreated control; type: functional; details: 120 h
[48] = tested on: Allium cepa; test: Inhibition of germination of Allium cepa (onion) at 0.1 mM after 5 days relative to untreated control; type: functional; details: 120 h
[49] = tested on: Allium cepa; test: Inhibition of root length of Allium cepa (onion) at 0.1 mM after 5 days relative to untreated control; type: functional; details: 120 h
[50] = tested on: Allium cepa; test: Inhibition of shoot length of Allium cepa (onion) at 0.1 mM after 5 days relative to untreated control; type: functional; details: 120 h
[51] = tested on: Triticum aestivum; test: Inhibition of germination of Triticum aestivum (wheat) at 0.1 mM after 5 days relative to untreated control; type: functional; details: 120 h
[52] = tested on: Triticum aestivum; test: Inhibition of root length of Triticum aestivum (wheat) at 0.1 mM after 5 days relative to untreated control; type: functional; details: 120 h
[53] = tested on: Solanum lycopersicum; test: Inhibition of root length of Solanum lycopersicum (tomato) at 10 uM after 5 days relative to untreated control; type: functional, organism-based
[54] = tested on: Solanum lycopersicum; test: Inhibition of germination of Solanum lycopersicum (tomato) at 10 uM after 5 days relative to untreated control; type: functional, organism-based
[55] = tested on: Lepidium sativum; test: Inhibition of shoot length of Lepidium sativum at 10 uM after 5 days relative to untreated control; type: functional, organism-based
[56] = tested on: Lepidium sativum; test: Inhibition of root length of Lepidium sativum at 10 uM after 5 days relative to untreated control; type: functional, organism-based
[57] = tested on: Lepidium sativum; test: Inhibition of germination of Lepidium sativum at 10 uM after 5 days relative to untreated control; type: functional, organism-based
[58] = tested on: Hordeum vulgare; test: Inhibition of shoot length of Hordeum vulgare (barley) at 0.1 mM after 5 days relative to untreated control; type: functional; details: 120 h

CO[C@@H]1OC(=O)C=C2C1=C[C@H]1OC(=O)[C@@]3(C)CCC[C@@]2(C)[C@@H]13 showed an Activity [1] of over 40%, an Activity [2] of over 40% and an Activity [3] of over 40%. It also gave an Activity [4] of over 40%, an Activity [5] of over 40% and an Activity [6] of over 40%. The Activity [7] was over 40%, the Activity [8] was over 40% and the Activity [9] was over 40%. The Activity [10] was over 40%, the Activity [11] was over 40% and the Activity [12] was over 40%. The Activity [13] was over 40%, the Activity [14] was over 40% and the Activity [15] was over 40%. It also gave an Activity [16] of over 40%, an Activity [17] of over 40% and an Activity [18] of over 40%. It also gave an Activity [19] of over 40%, an Activity [20] of 20% and an inhibition at 100 µM [21] of over 40%. For the same compound, the inhibition at 100 µM [22] was over 40%, the inhibition at 100 µM [23] was over 40% and the Activity [24] was over 40%. The inhibition at 100 µM [25] was 20%, the inhibition at 100 µM [26] was over 40% and the inhibition at 100 µM [27] was over 40%. For the same compound, the inhibition [28] was “inactive”, the inhibition [29] was “inactive” and the inhibition [30] was “inactive”. The inhibition at 10 µM [31] was -74%, the inhibition at 10 µM [32] was -42% and the inhibition at 10 µM [33] was -54%. It also gave an inhibition at 1 µM [34] of -44%, an Activity [35] of -73% and an inhibition at 1 µM [36] of -45%. For the same compound, the Activity [37] was -44%, the inhibition [38] was “Active” and the inhibition at 100 µM [39] was over 40%. It also gave an inhibition at 100 µM [40] of over 40%, an inhibition at 100 µM [41] of over 40% and an inhibition at 100 µM [42] of over 40%. It also gave an inhibition at 100 µM [43] of over 40%, an inhibition at 100 µM [44] of over 40% and an inhibition at 100 µM [45] of over 40%. The inhibition at 100 µM [46] was over 40%, the inhibition at 100 µM [47] was over 40% and the inhibition at 100 µM [48] was over 40%. The inhibition at 100 µM [49] was over 40%, the inhibition at 100 µM [50] was over 40% and the inhibition at 100 µM [51] was over 40%. For the same compound, the inhibition at 100 µM [52] was over 40%, the inhibition [53] was “Active” and the inhibition [54] was “Active”. For the same compound, the inhibition [55] was “Active”, the inhibition [56] was “Active” and the inhibition [57] was “Active”. It also gave an inhibition at 100 µM [58] of over 40%.
